Molecular target: GST-Xa-hAAK1 (Homo sapiens (Human), UniProt Q2M2I8)
Test: AAK1 Kinase Assay
Format: biochemical
Conditions: ATP 22 μM, 3 hours at room temperature
Protocol: The assays were performed in U-bottom 384-well plates. […] The reactions were initiated by the combination of bacterially expressed, GST-Xa-hAAK1 with substrates and test compounds. The reactions were incubated at room temperature for 3 hours and terminated by adding 60 μl of 35 mM EDTA buffer to each sample. The reactions were analyzed on the Caliper LabChip 3000 (Caliper, Hopkinton, Mass.) by electrophoretic separation of the fluorescent substrate and phosphorylated product. Inhibition data were calculated by comparison to EDTA quenched control reactions for 100% inhibition and vehicle-only reactions for 0% inhibition. […] Dose response curves were generated to determine the concentration required inhibiting 50% of kinase activity (IC50). Compounds were dissolved at 10 mM in dimethylsulfoxide (DMSO) and evaluated at eleven concentrations. IC50 values were derived by non-linear regression analysis.

Sequence of GST-Xa-hAAK1 (Q2M2I8 whole entry): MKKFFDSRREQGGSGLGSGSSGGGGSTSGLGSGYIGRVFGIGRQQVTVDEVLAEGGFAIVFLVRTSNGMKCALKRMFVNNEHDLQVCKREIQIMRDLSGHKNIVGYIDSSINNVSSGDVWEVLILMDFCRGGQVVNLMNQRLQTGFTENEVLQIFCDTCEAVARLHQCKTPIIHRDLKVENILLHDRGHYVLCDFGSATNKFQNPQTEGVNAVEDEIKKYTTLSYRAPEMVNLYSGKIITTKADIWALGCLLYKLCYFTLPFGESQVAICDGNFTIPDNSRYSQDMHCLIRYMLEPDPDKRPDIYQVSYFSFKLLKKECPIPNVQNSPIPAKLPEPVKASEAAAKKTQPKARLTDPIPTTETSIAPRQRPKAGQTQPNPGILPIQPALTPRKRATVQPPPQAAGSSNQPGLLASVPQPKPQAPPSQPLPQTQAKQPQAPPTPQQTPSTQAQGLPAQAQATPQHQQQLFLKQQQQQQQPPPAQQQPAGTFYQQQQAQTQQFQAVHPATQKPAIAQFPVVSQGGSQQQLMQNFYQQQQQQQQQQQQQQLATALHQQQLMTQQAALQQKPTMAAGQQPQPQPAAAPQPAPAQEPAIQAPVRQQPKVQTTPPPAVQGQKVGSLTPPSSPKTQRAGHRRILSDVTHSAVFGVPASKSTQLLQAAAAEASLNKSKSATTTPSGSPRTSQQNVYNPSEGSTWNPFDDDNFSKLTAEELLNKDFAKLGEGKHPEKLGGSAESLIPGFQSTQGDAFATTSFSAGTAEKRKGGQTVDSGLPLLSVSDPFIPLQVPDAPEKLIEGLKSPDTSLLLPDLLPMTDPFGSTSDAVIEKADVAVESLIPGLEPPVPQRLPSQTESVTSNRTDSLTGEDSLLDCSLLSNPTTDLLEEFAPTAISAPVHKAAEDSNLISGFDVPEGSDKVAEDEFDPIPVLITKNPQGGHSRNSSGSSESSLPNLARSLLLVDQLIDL

| SMILES | IC50 [nM] | IC50 (listed as IC50 ranges) [nM] |
| --- | --- | --- |
| NC1CCN(Cc2ccn3ncnc(Nc4cccc(-c5noc(C6CCCC6)n5)c4)c23)CC1 [Example 73, 5-((4-aminopiperidin-1-yl)methyl)-N-(3-(5-cyclopentyl-1,2,4-oxadiazol-3-yl)phenyl)pyrrolo[2,1-f][1,2,4]triazin-4-amine] | 16 | – |
| CC(C)n1nnc(-c2cccc(Nc3ncnn4ccc(CN5[C@@H]6CC[C@H]5CC(O)C6)c34)c2)n1 (stereo partly drawn) [Example 59, (1R,5S)-8-((4-((3-(2-isopropyl-2H-tetrazol-5-yl)phenyl)amino)pyrrolo[2,1-f][1,2,4]triazin-5-yl)methyl)-8-azabicyclo[3.2.1]octan-3-ol] | 128 | – |
| CC(CN)CNCc1ccn2ncnc(Nc3cccc(-c4nnc(C(C)C)s4)c3)c12 (centres unmarked) [Example 70, N1-((4-((3-(5-isopropyl-1,3,4-thiadiazol-2-yl)phenyl)amino)pyrrolo[2,1-f][1,2,4]triazin-5-yl)methyl)-2-methylpropane-1,3-diamine] | – | 100 to 1000 |
| CNCc1ccn2ncnc(Nc3cccc(-c4nnn(C(C)C)n4)c3)c12 [Example 63, N-(3-(2-isopropyl-2H-tetrazol-5-yl)phenyl)-5-((methylamino)methyl)pyrrolo[2,1-f][1,2,4]triazin-4-amine] | – | 100 to 1000 |
| CC(C)n1nnc(-c2cc(O)cc(Nc3ncnn4ccc(CN5CCC(N)CC5)c34)c2)n1 [Example 36, 3-((5-((4-aminopiperidin-1-yl)methyl)pyrrolo[2,1-f][1,2,4]triazin-4-yl)amino)-5-(2-isopropyl-2H-tetrazol-5-yl)phenol] | 3.3 | – |
| C=Cc1cccc(Nc2ncnn3ccc(CN4CCC(N)CC4)c23)c1 [Example 4, 5-((4-aminopiperidin-1-yl)methyl)-N-(3-vinylphenyl)pyrrolo[2,1-f][1,2,4]triazin-4-amine] | – | 100 to 1000 |
| CC(C)n1nnc(-c2cccc(Nc3ncnn4ccc(CO)c34)c2)n1 [Example 98, (4-((3-(2-isopropyl-2H-tetrazol-5-yl)phenyl)amino)pyrrolo[2,1-f][1,2,4]triazin-5-yl)methanol] | 92 | – |
| CNC1CCN(Cc2ccn3ncnc(Nc4cccc(-c5noc(C(C)(C)C)n5)c4)c23)CC1 [Example 41, N-(3-(5-(tert-butyl)-1,2,4-oxadiazol-3-yl)phenyl)-5-((4-(methylamino)piperidin-1-yl)methyl)pyrrolo[2,1-f][1,2,4]triazin-4-amine] | – | 10 to 100 |
| CC(C)n1nnc(-c2cc(Nc3ncnn4ccc(CN5CCC(N)CC5)c34)cc(C(F)F)c2)n1 [Example 72, 5-((4-aminopiperidin-1-yl)methyl)-N-(3-(difluoromethyl)-5-(2-isopropyl-2H-tetrazol-5-yl)phenyl)pyrrolo[2,1-f][1,2,4]triazin-4-amine] | – | 10 to 100 |
| CNC(=O)c1ccn2ncnc(Nc3cccc(-c4nnn(C(C)C)n4)c3)c12 [Example 103, 4-((3-(2-isopropyl-2H-tetrazol-5-yl)phenyl)amino)-N-methylpyrrolo[2,1-f][1,2,4]triazine-5-carboxamide] | 26 | – |
| CC(C)n1nnc(-c2cccc(Nc3ncnn4ccc(CN5CCC(C#N)CC5)c34)c2)n1 [Example 65, 1-((4-((3-(2-isopropyl-2H-tetrazol-5-yl)phenyl)amino)pyrrolo[2,1-f][1,2,4]triazin-5-yl)methyl)piperidine-4-carbonitrile] | 72 | – |
| CC(C)NC(=O)c1ccn2ncnc(Nc3cccc(-c4nnn(C(C)C)n4)c3)c12 [Example 106, N-isopropyl-4-((3-(2-isopropyl-2H-tetrazol-5-yl)phenyl)amino)pyrrolo[2,1-f][1,2,4]triazine-5-carboxamide] | 2350 | – |
| CC(C)c1nnc(-c2cccc(Nc3ncnn4ccc(CN5CCC(N)C5)c34)c2)s1 (centres unmarked) [Example 32, 5-((3-aminopyrrolidin-1-yl)methyl)-N-(3-(5-isopropyl-1,3,4-thiadiazol-2-yl)phenyl)pyrrolo[2,1-f][1,2,4]triazin-4-amine] | – | 100 to 1000 |
| CC(C)c1nnc(-c2cccc(Nc3ncnn4ccc(CN5CCC(N)CC5)c34)c2)s1 [Example 9, 5-((4-aminopiperidin-1-yl)methyl)-N-(3-(5-isopropyl-1,3,4-thiadiazol-2-yl)phenyl)pyrrolo[2,1-f][1,2,4]triazin-4-amine] | – | 10 to 100 |
| CC(C)n1nnc(-c2cccc(Nc3ncnn4ccc(CNCC#N)c34)c2)n1 [Example 66, 2-(((4-((3-(2-isopropyl-2H-tetrazol-5-yl)phenyl)amino)pyrrolo[2,1-f][1,2,4]triazin-5-yl)methyl)amino)acetonitrile] | 1100 | – |
| COc1cc(Nc2ncnn3ccc(C)c23)cc(-c2noc(C(C)C)n2)c1 [Example 92, N-(3-(5-isopropyl-1,2,4-oxadiazol-3-yl)-5-methoxyphenyl)-5-methylpyrrolo[2,1-f][1,2,4]triazin-4-amine] | 1170 | – |
| Cc1nnc(-c2cccc(Nc3ncnn4ccc(CN5CCC(N)CC5)c34)c2)s1 [Example 17, 5-((4-aminopiperidin-1-yl)methyl)-N-(3-(5-methyl-1,3,4-thiadiazol-2-yl)phenyl)pyrrolo[2,1-f][1,2,4]triazin-4-amine] | – | 100 to 1000 |
| CC(C)(CO)c1nc(-c2cccc(Nc3ncnn4cccc34)c2)no1 [Example 81, 2-methyl-2-(3-(3-(pyrrolo[2,1-f][1,2,4]triazin-4-ylamino)phenyl)-1,2,4-oxadiazol-5-yl)propan-1-ol] | 413 | – |

| SMILES | IC50 [nM] | IC50 (listed as IC50 ranges) [nM] |
| --- | --- | --- |
| CCc1nnc(-c2cccc(Nc3ncnn4ccc(CN5CCC(N)CC5)c34)c2)[nH]1 [Example 15, 5-((4-aminopiperidin-1-yl)methyl)-N-(3-(5-ethyl-4H-1,2,4-triazol-3-yl)phenyl)pyrrolo[2,1-f][1,2,4]triazin-4-amine] | – | 10 to 100 |
| CC(C)n1nnc(-c2ccc(O)c(Nc3ncnn4ccc(CN5CCC(N)CC5)c34)c2)n1 [Example 38, 2-((5-((4-aminopiperidin-1-yl)methyl)pyrrolo[2,1-f][1,2,4]triazin-4-yl)amino)-4-(2-isopropyl-2H-tetrazol-5-yl)phenol] | – | 1 to 10 |
| COCc1ccn2ncnc(Nc3cccc(-c4nnn(C(C)C)n4)c3)c12 [Example 100, N-(3-(2-isopropyl-2H-tetrazol-5-yl)phenyl)-5-(methoxymethyl)pyrrolo[2,1-f][1,2,4]triazin-4-amine] | 54 | – |
| CC(C)c1nnc(-c2cccc(Nc3ncnn4ccc(CN5CCC(CN)C5)c34)c2)s1 (centres unmarked) [Example 31, 5-((3-(aminomethyl)pyrrolidin-1-yl)methyl)-N-(3-(5-isopropyl-1,3,4-thiadiazol-2-yl)phenyl)pyrrolo[2,1-f][1,2,4]triazin-4-amine] | – | 100 to 1000 |
| NC1CCN(Cc2ccn3ncnc(Nc4cccc(-c5cnco5)c4)c23)CC1 [Example 1, 5-((4-aminopiperidin-1-yl)methyl)-N-(3-(oxazol-5-yl)phenyl)pyrrolo[2,1-f][1,2,4]triazin-4-amine] | – | 100 to 1000 |
| Cc1ccn2ncnc(Nc3cccc(-c4noc(C(C)(C)CO)n4)c3)c12 [Example 89, 2-methyl-2-(3-(3-(5-methylpyrrolo[1,2-f][1,2,4]triazin-4-ylamino)phenyl)-1,2,4-oxadiazol-5-yl)propan-1-ol] | 207 | – |
| CNC1CCN(Cc2ccn3ncnc(Nc4cccc(-c5nnc(C)s5)c4)c23)CC1 [Example 18, N-(3-(5-methyl-1,3,4-thiadiazol-2-yl)phenyl)-5-((4-(methylamino)piperidin-1-yl)methyl)pyrrolo[2,1-f][1,2,4]triazin-4-amine] | – | 100 to 1000 |
| CNC1CCN(Cc2ccn3ncnc(Nc4cccc(-c5nnc(C(C)C)s5)c4)c23)C1 (centres unmarked) [Example 30, N-(3-(5-isopropyl-1,3,4-thiadiazol-2-yl)phenyl)-5-((3-(methylamino)pyrrolidin-1-yl)methyl)pyrrolo[2,1-f][1,2,4]triazin-4-amine] | – | 100 to 1000 |
| CC(C)n1nnc(-c2cc(Nc3ncnn4ccc(CN5CCC(N)CC5)c34)cc3[nH]cnc23)n1 [Example 75, 5-((4-aminopiperidin-1-yl)methyl)-N-(4-(2-isopropyl-2H-tetrazol-5-yl)-1H-benzo[d]imidazol-6-yl)pyrrolo[2,1-f][1,2,4]triazin-4-amine] | – | 100 to 1000 |
| CNC1CCN(Cc2ccn3ncnc(Nc4cccc(-c5nnc(C(C)C)o5)c4)c23)CC1 [Example 40, N-(3-(5-isopropyl-1,3,4-oxadiazol-2-yl)phenyl)-5-((4-(methylamino)piperidin-1-yl)methyl)pyrrolo[2,1-f][1,2,4]triazin-4-amine] | – | 10 to 100 |
| Cc1nnc(-c2cccc(Nc3ncnn4ccc(CN5CC6CNCC6C5)c34)c2)s1 (centres unmarked) [Example 20, 5-((hexahydropyrrolo[3,4-c]pyrrol-2(1H)-yl)methyl)-N-(3-(5-methyl-1,3,4-thiadiazol-2-yl)phenyl)pyrrolo[2,1-f][1,2,4]triazin-4-amine] | – | 1000 to 5000 |
| CC(C)c1nnc(-c2cccc(Nc3ncnn4ccc(CN5CC(N)C5)c34)c2)s1 [Example 28, 5-((3-aminoazetidin-1-yl)methyl)-N-(3-(5-isopropyl-1,3,4-thiadiazol-2-yl)phenyl)pyrrolo[2,1-f][1,2,4]triazin-4-amine] | – | 100 to 1000 |
| NC1CCN(Cc2ccn3ncnc(Nc4cc(O)cc(-c5ncco5)c4)c23)CC1 [Example 7, 3-((5-((4-aminopiperidin-1-yl)methyl)pyrrolo[2,1-f][1,2,4]triazin-4-yl)amino)-5-(oxazol-2-yl)phenol] | – | 100 to 1000 |
| CC(C)c1nnc(-c2cccc(Nc3ncnn4cccc34)c2)o1 [Example 80, N-(3-(5-isopropyl-1,3,4-oxadiazol-2-yl)phenyl)pyrrolo[2,1-f][1,2,4]triazin-4-amine] | 384 | – |
| Cc1ccn2ncnc(Nc3cc(O)cc(-c4noc(C(C)C)n4)c3)c12 [Example 93, 3-(5-isopropyl-1,2,4-oxadiazol-3-yl)-5-((5-methylpyrrolo[2,1-f][1,2,4]triazin-4-yl)amino)phenol] | 73 | – |
| CC(C)c1nnc(-c2cccc(Nc3ncnn4ccc(CN5CCNCC5)c34)c2)s1 [Example 35, N-(3-(5-isopropyl-1,3,4-thiadiazol-2-yl)phenyl)-5-(piperazin-1-ylmethyl)pyrrolo[2,1-f][1,2,4]triazin-4-amine] | – | 100 to 1000 |
| Cn1ccc(-c2cccc(Nc3ncnn4ccc(CN5CCC(N)CC5)c34)c2)n1 [Example 12, 5-((4-aminopiperidin-1-yl)methyl)-N-(3-(1-methyl-1H-pyrazol-3-yl)phenyl)pyrrolo[2,1-f][1,2,4]triazin-4-amine] | 446 | – |
